What all share (assay): Qualitative dye staining on agarose pads (EVOS M7000)
Common to all, as to assay type: cell-based
Common to all, as to design: key to Relative fluorescent intensity: Very high: If the cells looked twice as big in the fluorescent channel, it was marked as having “very high” relative fluorescent intensity; High: if the cells looked bigger in the fluorescent channel, it was marked as having “high” relative fluorescent intensity; Medium: If the cells looked almost the same size in the fluorescent channel and the bright field, it was marked as having “medium” relative fluorescent intensity; Low: If the cells looked smaller in the fluorescent channel as compared to the brightfield but still the whole cell was visible, it was marked as having “low” relative fluorescent intensity; Negligible: If only a few traces of a cell was visible in the fluorescent channel, it was marked as having “negligible” relative fluorescent intensity

The test system of experiment [1] is Staphylococcus saprophyticus. Particulars: DiSC3(5) 3 μM, SYBR Green I 10×, SYTO 13 3 μM, FM4-64 15 μM. The procedure: (§1) An overnight culture was prepared by inoculating a bacterial colony in approximately 5 ml of Urine and incubating the culture in an orbital shaker at 37° C.
(§2) The following media and materials were utilised: Cation-adjusted Mueller Hinton broth (MHB); Phosphate Buffered Saline (PBS); Membrane staining dye—FM4-64 (1.5 mM); Live cell staining dye—DiSC3(5) (1 mM); DNA staining dye—SYBR Green (1000×); DNA staining dye—SYTO 13 (0.5 mM); Ultrapure Agarose; Parafilm; Glass slides and coverslips; Scalpel; and EVOS M7000 fluorescent microscope.
(§3) A pre-cut parafilm or a coverslip was used as a guide and 22 mm×22 mm squares cut from parafilm. A square was cut out of the centre of the parafilm (approximately 10 mm×10 mm). The centre of the cut-out was discarded. Two parafilm gaskets were placed onto a cleaned glass slide. The glass slide was then placed on a dry bath set to 56° C. so that the parafilm adhered to the glass slide. The glass slide was then kept on the dry bath. Using a microwave, ultrapure agarose was dissolved in PBS at a concentration of 1.2%. The agarose solution was kept on a dry bath set at 56° C. 60 μl of the agarose solution was pipetted in the centre of the parafilm gaskets. A coverslip was then placed over the gaskets without applying pressure on the coverslip. The slide was then placed on a cool surface and left to solidify for 1-2 minutes. The coverslips were then gently lifted off the agarose pads.
(§4) In a first Eppendorf, 15 μl of FM4-64 and 6 μl of SYTO 13 was added and in a second Eppendorf 10 μl of SYBR Green and 3 μl of DiSC3(5) was added. Depending on the bacterial growth in urine, an appropriate concentration of the bacterial culture was placed in the two Eppendorfs (final bacterial concentration 10^6 CFU/ml). MHB was added so as to achieve a final volume of 1 ml. Final concentrations of the dyes in the sample was as follows: DiSC3(5): 3 μM; SYBR Green I: 10× (originally supplied as 10,000×); SYTO 13: 3 μM; and FM4-64: 15 μM
(§5) 4 μl of the contents of each Eppendorf were deposited on one agarose pad and the cells distributed across the agar surface by tilting the slide. The slide was left to dry for approximately 1 minute. A coverslip was then placed on top of the agarose pad. The slide was placed inside the microscope and incubated at 37° C. for 10 minutes. Using different light filters for each dye, an image of each pad at 40× magnification on an EVOS M7000 fluorescent microscope was captured. Eight images for each agarose pad was recorded (i.e. 8 each for brightfield and 2 fluorescent channels). For each agarose pad, 24 images were recorded. This corresponded to 48 images in total for each bacterial strain (2 agarose pads per strain). Table A below was used to take the images using the correct fluorescent channel and intensity (for imagining on any other instrument, the LED intensity will need to be normalised against the EVOS M7000).
(§6) To qualitatively calculate the relative fluorescent intensities, cell size was compared between brightfield and the fluorescent channel for a given fluorescent dye. If the cells are very fluorescent, they will appear bigger in the fluorescent channel as compared to the bright field. For our qualitative measurements, if the cells looked bigger in the fluorescent channel, it was marked as having “high” relative fluorescent intensity. If the cells looked twice as big in the fluorescent channel, it was marked as having “very high” relative fluorescent intensity. If the cells looked almost the same size in the fluorescent channel and the bright field, it was marked as having “medium” relative fluorescent intensity. If the cells looked smaller in the fluorescent channel as compared to the brightfield but still the whole cell was visible, it was marked as having “low” relative fluorescent intensity. If only a few traces of a cell was visible in the fluorescent channel, it was marked as having “negligible” relative fluorescent intensity.

The test system of another experiment is Proteus. Particulars: Table 6 thresholds, DiSC3(5) 3 μM, SYBR Green I 10×, SYTO 13 3 μM, FM4-64 15 μM. The procedure:
as §1, §2, §3, §4, §5, §6

The test system of a further experiment is Enterococcus faecalis. Particulars: DiSC3(5) 3 μM, SYBR Green I 10×, SYTO 13 3 μM, FM4-64 15 μM. The procedure:
as §1, §2, §3, §4, §5, §6

Where [2] appears, read: Table 6 thresholds, Staphylococcus saprophyticus.
Setting [3] is: Table 7 commercial strain S. saprophyticus NCTC 13634.
The mark [4] stands for this setting: Table 8 sample Staphylococcus saprophyticus (047).
The mark [5] stands for this setting: Table 8 sample Staphylococcus saprophyticus (048).
The mark [6] stands for this setting: Table 8 sample Staphylococcus saprophyticus (049).
Setting [7] is: Table 7 commercial strain Enterococcus faecalis NCTCT 12697.
[8] abbreviates: Table 8 sample Enterococcus faecalis (001).
Setting [9] is: Table 8 sample Enterococcus faecalis (002).
Setting [10] is: Table 8 sample Enterococcus faecalis (003).

Turning to `CCCN1C(=CC=CC=Cc2sc3ccccc3[n+]2CCC)Sc2ccccc21.[I-]` [DiSC3(5), 3,3′-Dipropylthiadicarbocyanine Iodide], the “Percentage of cells stained” value is on record as “Almost all” in experiment [1] (setting [2]); “Almost all” in experiment [1] (setting [3]); “Almost all” in experiment [1] (setting [4]); “Almost all” in experiment [1] (setting [5]); “Almost all” in experiment [1] (setting [6]); “Half” in the experiment on Proteus. Also, the “Percentage of cells stained” value in the experiment with Enterococcus faecalis (setting [7]), in the experiment with Enterococcus faecalis (setting [8]), in the experiment on Enterococcus faecalis (setting [9]) and in the experiment with Enterococcus faecalis (setting [10]) was “Half” throughout. Besides, the Relative fluorescent intensity entry in experiment [1] (setting [2]) was “high and High”; in experiment [1] (setting [3]), “High”; in experiment [1] (setting [4]), “High”; in experiment [1] (setting [5]) it was “High”; in experiment [1] (setting [6]), “High”; in the experiment with Proteus, “Low-Medium”. The Relative fluorescent intensity entry with Enterococcus faecalis (setting [7]), in the experiment with Enterococcus faecalis (setting [8]), in the experiment on Enterococcus faecalis (setting [9]) and with Enterococcus faecalis (setting [10]) was “Low” throughout.
For `CCN(CC)c1ccc(C=CC=CC=Cc2cc[n+](CCC[N+](CC)(CC)CC)cc2)cc1.[Br-].[Br-]` [FM 4-64, N-(3-Triethylammoniumpropyl)-4-(6-(4-(Diethylamino) Phenyl) Hexatrienyl) Pyridinium Dibromide], the “Percentage of cells stained” value in experiment [1] (setting [2]) is “Almost all”; in experiment [1] (setting [3]), “Almost all”; in experiment [1] (setting [4]) it was “Almost all”; in experiment [1] (setting [5]), “Almost all”; in experiment [1] (setting [6]) it was “Almost all”; in the experiment with Proteus, “Few”. Further, the “Percentage of cells stained” value with Enterococcus faecalis (setting [7]), with Enterococcus faecalis (setting [8]), with Enterococcus faecalis (setting [9]) and in the experiment on Enterococcus faecalis (setting [10]) was “Almost all” throughout. Also, the Relative fluorescent intensity result in experiment [1] (setting [2]) was “High”; in experiment [1] (setting [3]) it was “High”; in experiment [1] (setting [4]), “High”; in experiment [1] (setting [5]) it was “High”; in experiment [1] (setting [6]) it was “High”; with Proteus, “no staining or negligible”. Also, the Relative fluorescent intensity result is recorded as “Negligible” in the experiment with Proteus (listed as FM4-64); “Medium” in the experiment with Enterococcus faecalis (setting [7]); “Medium” in the experiment with Enterococcus faecalis (setting [8]); “Medium” in the experiment on Enterococcus faecalis (setting [9]); “Medium” in the experiment with Enterococcus faecalis (setting [10]).
As to `CCCN(CCCN(C)C)c1cc(/C=C2/Sc3ccccc3N2C)c2ccccc2[n+]1-c1ccccc1` [SYBR Green I, N′,N′-dimethyl-N-[4-[(E)-(3-methyl-1,3-benzothiazol-2-ylidene)methyl]-1-phenylquinolin-1-ium-2-yl]-N-propylpropane-1,3-diamine], the “Percentage of cells stained” value in experiment [1] (setting [2]) is recorded as “Almost all”; in experiment [1] (setting [3]) it was “Almost all”; in experiment [1] (setting [4]) it was “Almost all”; in experiment [1] (setting [5]) it was “Almost all”; in experiment [1] (setting [6]), “Almost all”; with Proteus, “Half”. For the same compound, the “Percentage of cells stained” value with Enterococcus faecalis (setting [7]), with Enterococcus faecalis (setting [8]), in the experiment on Enterococcus faecalis (setting [9]) and in the experiment on Enterococcus faecalis (setting [10]) was “Almost all” throughout. The Relative fluorescent intensity result in experiment [1] (setting [2]) is reported as “High”; in experiment [1] (setting [3]) it was “High”; in experiment [1] (setting [4]), “High”; in experiment [1] (setting [5]), “High”; in experiment [1] (setting [6]) it was “High”; with Proteus, “Low”. The Relative fluorescent intensity result in the experiment with Enterococcus faecalis (setting [7]), in the experiment on Enterococcus faecalis (setting [8]), in the experiment with Enterococcus faecalis (setting [9]) and in the experiment on Enterococcus faecalis (setting [10]) was “Medium” each time.
